Source: the supplement of paper PMC13380429

Tests used:
[1] = test system: A549-ACE2 infected with SARS-CoV-2; test: morphology score (similarity to uninfected cells); higher = more like uninfected cells; settings: 24 h
A549-ACE2 [2] = test: phospholipidosis EC50; higher = less potent phospholipidosis inducer
Vero E6 [3] = test: cell viability relative to DMSO; higher = less toxic; settings: 72 h
Caco-2 [4] = test: as above; settings: 72 h
Calu-3 [5] = test: as above; settings: 72 h
HepG2 [6] = test: as above; settings: 72 h
U2OS [7] = test: as above; settings: 72 h
[8] = test system: A549-ACE2 infected with SARS-CoV-2; test: cell count relative to DMSO; higher = less toxic; settings: 24 h
A549-ACE2 [9] = test: drug-induced phospholipidosis relative to tamoxifen; higher = more phospholipidosis
Vero E6 [10] = test: relative viability EC50 (midpoint between 100% and the lowest measured viability); higher = less toxic; settings: 72 h
Caco-2 [11] = test: as above; settings: 72 h
Calu-3 [12] = test: as above; settings: 72 h
U2OS [13] = test: as above; settings: 72 h
[14] = test system: A549-ACE2 infected with SARS-CoV-2; test: SARS-CoV-2 infection rate relative to DMSO; higher = more infection; settings: 24 h
Vero E6 [15] = test: drug sensitivity score (DSS) for viability; higher = more toxic; extreme values may be limits of the assay; settings: 72 h
Caco-2 [16] = test: as above; settings: 72 h
Calu-3 [17] = test: as above; settings: 72 h
HepG2 [18] = test: as above; settings: 72 h
U2OS [19] = test: as above; settings: 72 h
HepG2 [20] = test: relative viability EC50 (midpoint between 100% and the lowest measured viability); higher = less toxic; settings: 72 h

CC(Cc1ccccc1)NCCC(c1ccccc1)c1ccccc1 (stereo not drawn) [prenylamine]
Settings	SARS-CoV-2 infection rate [%]	cell count [%]	cell viability [%]	morphology score	phospholipidosis EC50 [µM]
A549-ACE2 [2], 24 h	–	–	–	–	3.65
A549-ACE2 [2], 48 h	–	–	–	–	4.62
A549-ACE2 [2], 72 h	–	–	–	–	6.27
Caco-2 [4], 1 nM	–	–	112	–	–
Caco-2 [4], 10 nM	–	–	101	–	–
Caco-2 [4], 100 nM	–	–	93.6	–	–
Caco-2 [4], 1000 nM	–	–	100	–	–
Caco-2 [4], 10000 nM	–	–	87.1	–	–
Calu-3 [5], 1 nM	–	–	103	–	–
Calu-3 [5], 10 nM	–	–	106	–	–
Calu-3 [5], 100 nM	–	–	95.3	–	–
Calu-3 [5], 1000 nM	–	–	106	–	–
Calu-3 [5], 10000 nM	–	–	17.9	–	–
HepG2 [6], 1 nM	–	–	110	–	–
HepG2 [6], 10 nM	–	–	110	–	–
HepG2 [6], 100 nM	–	–	101	–	–
HepG2 [6], 1000 nM	–	–	107	–	–
HepG2 [6], 10000 nM	–	–	64.5	–	–
U2OS [7], 1 nM	–	–	97.2	–	–
U2OS [7], 10 nM	–	–	94.7	–	–
U2OS [7], 100 nM	–	–	97.3	–	–
U2OS [7], 1000 nM	–	–	100	–	–
U2OS [7], 10000 nM	–	–	85.7	–	–
Vero E6 [3], 1 nM	–	–	103	–	–
Vero E6 [3], 10 nM	–	–	110	–	–
Vero E6 [3], 100 nM	–	–	102	–	–
Vero E6 [3], 1000 nM	–	–	102	–	–
Vero E6 [3], 10000 nM	–	–	89.3	–	–
[1], 0.3 µM	–	–	–	-0.03	–
[1], 3 µM	–	–	–	0.78	–
[1], 10 µM	–	–	–	0.92	–
[1], 30 µM	–	–	–	-0.09	–
[8], 0.3 µM	–	103	–	–	–
[8], 3 µM	–	119	–	–	–
[8], 10 µM	–	123	–	–	–
[8], 30 µM	–	19	–	–	–
[14], 0.3 µM	108	–	–	–	–
[14], 3 µM	47	–	–	–	–
[14], 10 µM	6	–	–	–	–
[14], 30 µM	43	–	–	–	–

drug-induced phospholipidosis [%], A549-ACE2 [9]
Settings	0.3 µM	0.833333 µM	3.33333 µM	6.66667 µM	10 µM
24 h	2.14	1.61	44.8	88.2	97.4
48 h	3.35	0.12	33.5	85	103
72 h	3.19	2.37	29.7	74.3	100

Settings	drug sensitivity score	relative viability EC50 [µM]
Caco-2 [11]	–	> 10
Caco-2 [16]	0.1	–
Calu-3 [12]	–	3.51
Calu-3 [17]	4.1	–
HepG2 [18]	1.3	–
U2OS [13]	–	> 10
U2OS [19]	0.2	–
Vero E6 [10]	–	> 10
Vero E6 [15]	0	–

CCN1CCN(Cc2ccc(C(=O)Nc3ccc(C)c(Oc4ccc5c(c4)CC(=O)N5)c3)cc2C(F)(F)F)CC1 [DDR1-IN-1]
Settings	SARS-CoV-2 infection rate [%]	cell count [%]	cell viability [%]	morphology score	phospholipidosis EC50 [µM]
A549-ACE2 [2], 24 h	–	–	–	–	1.39
A549-ACE2 [2], 48 h	–	–	–	–	3.2
A549-ACE2 [2], 72 h	–	–	–	–	4.19
Caco-2 [4], 1 nM	–	–	102	–	–
Caco-2 [4], 10 nM	–	–	94.8	–	–
Caco-2 [4], 100 nM	–	–	101	–	–
Caco-2 [4], 1000 nM	–	–	88.1	–	–
Caco-2 [4], 10000 nM	–	–	58	–	–
Calu-3 [5], 1 nM	–	–	97.2	–	–
Calu-3 [5], 10 nM	–	–	101	–	–
Calu-3 [5], 100 nM	–	–	99.2	–	–
Calu-3 [5], 1000 nM	–	–	104	–	–
Calu-3 [5], 10000 nM	–	–	50.3	–	–
HepG2 [6], 1 nM	–	–	96.5	–	–
HepG2 [6], 10 nM	–	–	91.4	–	–
HepG2 [6], 100 nM	–	–	90.3	–	–
HepG2 [6], 1000 nM	–	–	104	–	–
HepG2 [6], 10000 nM	–	–	42.5	–	–
U2OS [7], 1 nM	–	–	100	–	–
U2OS [7], 10 nM	–	–	98.2	–	–
U2OS [7], 100 nM	–	–	99.6	–	–
U2OS [7], 1000 nM	–	–	94.5	–	–
U2OS [7], 10000 nM	–	–	79.8	–	–
Vero E6 [3], 1 nM	–	–	97.4	–	–
Vero E6 [3], 10 nM	–	–	99.5	–	–
Vero E6 [3], 100 nM	–	–	100	–	–
Vero E6 [3], 1000 nM	–	–	100	–	–
Vero E6 [3], 10000 nM	–	–	72.9	–	–
[1], 0.1 µM	–	–	–	-0.13	–
[1], 0.3 µM	–	–	–	-0.1	–
[1], 1 µM	–	–	–	0.26	–
[1], 3 µM	–	–	–	0.78	–
[8], 0.1 µM	–	102	–	–	–
[8], 0.3 µM	–	104	–	–	–
[8], 1 µM	–	114	–	–	–
[8], 3 µM	–	121	–	–	–
[14], 0.1 µM	98	–	–	–	–
[14], 0.3 µM	96	–	–	–	–
[14], 1 µM	61	–	–	–	–
[14], 3 µM	26	–	–	–	–

drug-induced phospholipidosis [%], A549-ACE2 [9]
Settings	0.3 µM	0.833333 µM	3.33333 µM	6.66667 µM	10 µM	30 µM
24 h	10.6	33.4	86.8	106	121	89.6
48 h	6.52	20.9	67.3	89.5	109	118
72 h	6.39	17.7	60.8	89.3	107	126

Settings	drug sensitivity score	relative viability EC50 [µM]
Caco-2 [16]	3.9	–
Calu-3 [17]	2.3	–
HepG2 [18]	2.8	–
HepG2 [20]	–	3.52
U2OS [13]	–	> 10
U2OS [19]	1.3	–
Vero E6 [15]	1.1	–

OCCN1CCN(CCCN2c3ccccc3Sc3ccc(C(F)(F)F)cc32)CC1 [fluphenazine]
Settings	SARS-CoV-2 infection rate [%]	cell count [%]	cell viability [%]	morphology score	phospholipidosis EC50 [µM]
A549-ACE2 [2], 24 h	–	–	–	–	3.49
A549-ACE2 [2], 48 h	–	–	–	–	5.08
A549-ACE2 [2], 72 h	–	–	–	–	6.62
Caco-2 [4], 1 nM	–	–	101	–	–
Caco-2 [4], 10 nM	–	–	100	–	–
Caco-2 [4], 100 nM	–	–	88.2	–	–
Caco-2 [4], 1000 nM	–	–	85.2	–	–
Caco-2 [4], 10000 nM	–	–	64.4	–	–
Calu-3 [5], 1 nM	–	–	101	–	–
Calu-3 [5], 10 nM	–	–	110	–	–
Calu-3 [5], 100 nM	–	–	96.8	–	–
Calu-3 [5], 1000 nM	–	–	98.1	–	–
Calu-3 [5], 10000 nM	–	–	22.4	–	–
HepG2 [6], 1 nM	–	–	102	–	–
HepG2 [6], 10 nM	–	–	90.9	–	–
HepG2 [6], 100 nM	–	–	95.9	–	–
HepG2 [6], 1000 nM	–	–	96.1	–	–
HepG2 [6], 10000 nM	–	–	49.4	–	–
U2OS [7], 1 nM	–	–	101	–	–
U2OS [7], 10 nM	–	–	101	–	–
U2OS [7], 100 nM	–	–	94.7	–	–
U2OS [7], 1000 nM	–	–	92.6	–	–
U2OS [7], 10000 nM	–	–	84.2	–	–
Vero E6 [3], 1 nM	–	–	103	–	–
Vero E6 [3], 10 nM	–	–	100	–	–
Vero E6 [3], 100 nM	–	–	101	–	–
Vero E6 [3], 1000 nM	–	–	95.5	–	–
Vero E6 [3], 10000 nM	–	–	52	–	–
[1], 0.1 µM	–	–	–	0.13	–
[1], 0.3 µM	–	–	–	0.02	–
[1], 1 µM	–	–	–	0.49	–
[1], 3 µM	–	–	–	0.75	–
[8], 0.1 µM	–	103	–	–	–
[8], 0.3 µM	–	99	–	–	–
[8], 1 µM	–	90	–	–	–
[8], 3 µM	–	122	–	–	–
[14], 0.1 µM	97	–	–	–	–
[14], 0.3 µM	99	–	–	–	–
[14], 1 µM	83	–	–	–	–
[14], 3 µM	44	–	–	–	–

drug-induced phospholipidosis [%], A549-ACE2 [9]
Settings	0.3 µM	0.833333 µM	3.33333 µM	6.66667 µM	10 µM	30 µM
24 h	3.92	11.1	44.3	81.8	103	78.9
48 h	2.29	10	32.4	91.3	114	–
72 h	4.14	10.7	24.3	80.2	116	–

Settings	drug sensitivity score	relative viability EC50 [µM]
Caco-2 [16]	3.4	–
Calu-3 [12]	–	2.99
Calu-3 [17]	4.5	–
HepG2 [18]	3.3	–
HepG2 [20]	–	2.53
U2OS [13]	–	> 10
U2OS [19]	0.5	–
Vero E6 [15]	3.2	–
